Source: US12611415B2, “Methods and compounds for treatment of metabolic disease” (Monash University, priority 2019, dated 2026)

Test: Systemic (plasma) exposure of celecoxib after oral gavage
Format: in vivo, mouse
Settings: oral gavage 29 mg/kg in lipid based formulation (Compound I-1 equivalent to 8.3 mg/kg celecoxib), fasted mice
Protocol: To evaluate the systemic exposure of celecoxib and celecoxib prodrug Compound I-1, 29 mg/kg celecoxib or celecoxib prodrug (equivalent to 8.3 mg/kg celecoxib) were administered in a self-emulsifying lipid-based formulation consisting of oleic acid (Sigma Aldrich, Australia)/Cremophor RH40 (Sigma Aldrich, Australia)/ethanol (40:52.6:7.4, w/w/w). Drug and prodrug concentrations in the formulations were confirmed using HPLC-MS/MS as described below.
In addition to evaluating lymph uptake of celecoxib and celecoxib prodrug, a pharmacokinetic dose-determining study was conducted to determine a dose of celecoxib and celecoxib prodrug that produce higher lymphatic uptake but lower systemic plasma celecoxib exposure (i.e. lower plasma concentrations over time) after administration of the prodrug. […]
For HPLC-MS/MS analysis of celecoxib in plasma after dosing celecoxib or celecoxib prodrug Compound I-1, 200 μL acetonitrile was added to 20 μL samples of plasma and 5 μL of a 1 μg/mL solution of internal standard (5,5-diethyl-1,3-diphenyl-2-iminobarbituric acid) in acetonitrile. Samples were vortexed for 30 seconds and centrifuged at 4,500 g for 5 min, and 80 μL supernatant was analyzed for celecoxib concentration by HPLC-MS. […]

plasma concentrations of celecoxib, compared to an equal mass of the parent drug: lower
SMILES: CCCCCCCCCCCCCCCC(=O)OCC(COC(=O)CCCCCCCCCCCCCCC)OC(=O)CCCCCCCCC(=O)Oc1cc(C)cc(C)c1C(C)(C)CC(=O)NS(=O)(=O)c1ccc(-n2nc(C(F)(F)F)cc2-c2ccc(C)cc2)cc1 [Compound I-1]
